Values quoted from earlier work in patent US20260041939A1, “METHODS FOR THE TREATMENT OF HY[…] TRANSCRANIAL-FOCUSED-ULTRASOUND” (SUNNYBROOK RESEARCH INSTITUTE, priority 2022, published 2026).

Test system: c-FOS expression
Settings: microinjection into the tuberomammillary nucleus of rats

## CCCC(C)C1(CC)C(=O)NC(=O)NC1=O (stereo not drawn) [Pentobarbital, pentobarbital]
  c-FOS expression in the locus coeruleus: unchanged
  c-FOS expression in the tuberomammillary nucleus: suppress
  c-FOS expression in the ventrolateral preoptic nucleus (VLPO): increase
